Laboratory results published in US4599325A, “Substituted tyrosyl alanine dipeptide amides” (G. D. Searle & Co., priority 1985, dated 1986).
Structures can show the parent of a compound that is named as a salt. Where two headings read alike, the source gives them in different places.

Legend:
mu opiate receptor = molecular target: T1, mu opiate receptor (Rattus norvegicus, UniProt P33535); assay: Mu opiate receptor binding (3H-Dihydromorphine); conditions: Table 2; 3H-Dihydromorphine 0.2 nM, rat brain
T1 construct: The receptor membrane homogenate was prepared using rat brain; from tissue; host or cells: rat brain membrane homogenate
Method: Several subtypes of opiate receptors have been identified. These multiple receptors are thought to mediate the different effects of opiates, e.g., mu receptors are believed to mediate the analgesic activity of opiates. Therefore, the relative affinities of the test compounds for the mu and the delta opiate receptors was determined. The receptor membrane homogenate was prepared using rat brain as previously described in this document. The binding assays for the mu and delta receptors were performed using a modification of the method described by Chang and Cuatrecasas. K.-J. Chang and P. Cuatrecasas. Multiple Opiate receptors: enkephalins and morphine bind to receptors of different specificity, J. Biol. Chem. 254, 2610-2618 (1979). The incubation mixtures contained 0.75 ml of homogenate (1 mg protein/ml) and 0.05 ml of ^3 H-Dihydromorphine (final concentration of 0.2 nM) or 0.05 ml ^3 H-(D)-Ala^2 -(D)-Leu^5 enkephalin (final concentration of 0.2 nM). Both the displacer, naloxone, and the test compounds were added in 0.1 ml volumes. Finally, […] tris-HCl buffer (pH 7.4 at 25° C.) was added to bring the total volume up to 1 ml. The mixture were then incubated 60 minutes at 25° C. before filtering.
The IC50 values, i.e., the concentration of the test compound that inhibited ligand specific binding to its receptor by 50%, were calculated using log-probit analysis, D. J. Finney. […]

mice = assay: Combined tail flick and hot plate tests: tail flick; format: in vivo, mouse; conditions: for activity in tail flick test: oral and subcutaneous, prior art at doses as great as 100 mg/kg p.o. and 50 mg/kg s.c.; for ED50: Mus musculus, combined tail flick/hot plate
Method: Male albino inbred mice supplied by Charles River (CD-1/HAM/1LR) weighing between 20 and 30 grams were used. Analgesia was first measured using the tail flick test in which a high intensity beam of light was focused on the blackened tail. The interval of time between onset of the light and reflex removal of the tail was defined as the tail flick latency. The average of two successive determinations was recorded. Following tail flick determination, the animals were immediately placed on a 55° C. copper hot plate to which they were restricted by an inverted 600 ml glass beaker. Hot plate latency was defined as the interval between placement on the hot plate and a behavioral response of either a jump or a hindpaw lick. One determination was recorded. Mice not responding within 4.0 seconds on the tail flick and 20.0 seconds on the hot plate were discarded from the study. The tail flick test and the hot plate test were stopped after 12.0 and 40 seconds, respectively, had elapsed to prevent tissue damage. After determination of pre-injection baseline latencies, the test compound was dissolved in distilled water and administered either orally or subcutaneously (0.1 ml/10 gram body weight). Tail flick and hot plate latencies were measured 10, 30, 60 and 90 minutes after injection. One-way analyses of variance were used to detect any significant increase in tail flick and hot plate latencies (indicative of analgesia) as compared to latencies prior to drug adminstration, as well as to establish the dose-dependence of any effect. A linear regression method (least squares) was used to determine the line of best fit. The ED50 dose was determined to be that dose of test compound that produced one-half the maximum measurable increase in latency. This corresponded to a post-drug tail flick latency of 7.5 seconds and hot plate latency of 25 seconds. G. Keppel: Design and analysis: a researcher's handbook, New Jersey, Prentice-Hall, 1973.

opiate receptors = assay: Opiate binding assay (displacement of 3H-Naloxone); parameters: species or system rat; conditions: for IC50: Table 1, 3H-Naloxone, rat brain membranes
Method: The test compounds were evaluated for their ability to displace the binding of ^3 H-Naloxone to opiate receptors isolate from rat brain. Male rats [COBS CD(SD)BR] obtained from Charles River Laboratories (Portage, MI) were sacrificed by cervical dislocation. A purified homogenate of receptor membranes was prepared from the brains according to the method described by Chang and Cuatrecasas. (K.-J. Chang and P. Cuatrecases. Multiple Opiate Receptors: Enkephalins And Morphine Bind To Receptors Of Different Specificity. J. Biol. Chem. 254, 2610-2618 (1979).) The brains were homogenized in 10 volumes of 0.32M sucrose and centrifuged twice at 6,000×g for 15 minutes. Following centrifugation of the supernatants at 40,000×g for 30 minutes, the pellets were allowed to swell, then centrifuged at 6,000 and 40,000×g. This process was repeated. The final pellet was resuspended in 2 volumes of 50 mM tris HCl (pH 7.4). The homogenate was assayed for protein content according to the method of Itzhaki and Gill. R. F. Itzhaki and D. M. Gill. A Micro-Biuret Method for Estimating Proteins. Anal. Biochem. 9, […] (1964).
The binding of the test compounds to the receptor membrane preparation was measured using a modification of the method of Pert and Snyder. C. B. Pert and S. H. Snyder. Properties of Opiate-Receptor Binding in Rat Brain. Proc. Natl. Acad. Sci. 70, 2243-2247 (1973). The receptor assay was run using 1 nM ^3 H-Naloxone and 2 ml of tissue homogenate (0.5 mg/ml protein concentration). Levorphanol (1×10^-5 M) was used as the displacer for non-specific binding. Both the displacer and the test compounds were added in 0.02 ml volumes. The assay was run in 0.05M tris HCl (pH 7.4) ±100 mM NaCl. Total assay volume was 2.03 ml.
Samples were incubated at 25° C. for 60 min., cooled on ice 5 min. and subsequently filtered over Whatman GF/C glass fiber filters with 2.4 ml washes of cold buffer. The filters were then solubilized in 1 ml of NCS at 50° C. for 1 hour. After solubilization, the pH was adjusted with 0.1 ml of glacial acetic acid, 10 ml of PCS was added and the samples were counted in a Nuclear Chicago Mark II liquid scintillation counter. This method was used for the following test compounds: Example 4, Example 5, Example 27, Example 28, Example 38, Example 39, and the prior art compound (4).
A modification of this method was used for the following test compounds: Example 16, Example 17, Example 21, Example 22, Example 24, Example 30, Example 31. In this modification, the total assay volume was adjusted to 1.0 ml. Samples were cooled on ice for 10 minutes and dried at 50° C. for 30 minutes, then 10 mls of PCS was added and the samples counted in a liquid scinitillation counter.
The IC50 values, the concentration of the test compounds which inhibited ^3 H-Naloxone specific binding to the opiate receptor by 50%, were obtained from log-probit plots of concentration-response curves. D. J. Finney. Probit Analysis. Cambridge University Press, London, 1947.

T1 sequence (P33535 whole entry): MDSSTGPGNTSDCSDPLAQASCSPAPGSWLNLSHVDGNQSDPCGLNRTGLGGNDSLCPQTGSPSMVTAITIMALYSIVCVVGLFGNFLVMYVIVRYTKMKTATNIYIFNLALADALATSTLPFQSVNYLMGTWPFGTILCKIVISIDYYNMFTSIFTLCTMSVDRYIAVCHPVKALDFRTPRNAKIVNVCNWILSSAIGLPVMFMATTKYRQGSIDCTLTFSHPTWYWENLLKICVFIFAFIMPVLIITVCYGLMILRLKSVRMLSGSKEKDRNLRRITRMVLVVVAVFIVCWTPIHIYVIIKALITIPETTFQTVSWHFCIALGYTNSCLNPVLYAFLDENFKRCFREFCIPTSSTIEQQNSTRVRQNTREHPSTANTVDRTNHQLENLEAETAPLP

Row | Compound | IC50 (mu opiate receptor) [µM] | Tail Flick, activity at stated dose s.c. (mice; 50 mg/kg s.c.) | Tail Flick, activity at stated dose p.o. (mice; 100 mg/kg p.o.) | activity in tail flick test (mice) | IC50 (opiate receptors) [µM] | ED50 (mice; po, p.o., read-out: Tail Flick (ED50) p.o.) [mg/kg] | ED50 (mice; sc, s.c., read-out: Tail Flick (ED50) s.c.) [mg/kg] | IC50 (opiate receptors; hydrochloride) [µM] | affinity to the opiate receptor relative to the prior art compound (opiate receptors; greater affinity than prior art compound)
1 | tyrosine-D-alanine-phenylpropylamide [Prior Art, reference compound] | 0.0088 | Inactive | Inactive | not active | 0.43 | – | – | – | –
2 | Cc1cc(O)cc(C)c1C[C@H](N)C(=O)N[C@H](C)C(=O)NCCCc1ccccc1 [Example 5, 2,6-dimethyltyrosyl-N-(3-phenylpropyl)-D-alaninamide, hydrochloride] | 0.0001 | – | – | active | – | 115 | 35 | 0.027 | tenfold
